Measurements reported in ChEMBL document CHEMBL1148105, “Bioactive metabolites from a marine-derived strain of the fungus Emericella variecolor” (2002).
Converted amounts (≈) assume the structure as drawn.

Legend:
Format in all cases: functional
Enterococcus faecalis = assay: Antimicrobial activity against Enterococcus faecalis
Bacillus subtilis = assay: Antimicrobial activity against Bacillus subtilis
Staphylococcus aureus = assay: Antimicrobial activity against Staphylococcus aureus
Escherichia coli = assay: Antimicrobial activity against Escherichia coli

| MIC (Enterococcus faecalis) [µg/mL] | MIC (Bacillus subtilis) [µg/mL] | MIC (Staphylococcus aureus) [µg/mL] | MIC (Escherichia coli) [µg/mL] | SMILES |
| --- | --- | --- | --- | --- |
| 50 (≈ 123 µM) | 50 (≈ 123 µM) | 50 (≈ 123 µM) | 50 (≈ 123 µM) | C=C(C)[C@H]1COc2c(C)cc3oc4c(CC=C(C)C)ccc(O)c4c(=O)c3c2[C@@H]1O [SHAMIXANTHONE] |
| 50 | 50 | 50 | 50 | C=C(C)[C@H]1COc2c(C)cc3oc4c(C[C@H](O)C(C)(C)O)ccc(O)c4c(=O)c3c2[C@@H]1O.O [TAJIXANTHONE HYDRATE] |
